In patent US12077503B2, “Substituted cyclic amides and their use as herbicides” (FMC CORPORATION, priority 2015, dated 2024):

Experiments:
Assay type in all cases: in vivo
[1] = system: Galium (catchweed bedstraw, Galium aparine); experiment: Test A postemergence; settings: Galium, post-emergence, 240 h, read-out: Plant response rating, Galium; for pest or weed control at 125 g/ha: 125 g ai/ha, postemergence, visual injury after approximately 10 d, 0 to 100 scale (0 no effect, 100 complete control)
Summary of the method: (§1)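 In a loam soil and sand blend, planted seeds got a preemergence directed soil spray, and young plants at the one- to two-leaf stage, 2–10 cm high, got a postemergence application; ~10 d greenhouse hold; injury rated visually, 0 = none, 100 = complete control.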

Kochia (Kochia scoparia) = experiment: Test A postemergence; settings: Bassia scoparia, post-emergence, 240 h, read-out: Plant response rating, Kochia; for pest or weed control at 125 g/ha: 125 g ai/ha, postemergence, visual injury after approximately 10 d, 0 to 100 scale (0 no effect, 100 complete control)
Summary of the method: as §1

[2] = system: barnyardgrass (Echinochloa crus-galli); experiment: Test A postemergence; settings: Echinochloa crus-galli, post-emergence, 240 h, read-out: Plant response rating, Barnyardgrass; for pest or weed control at 125 g/ha: 125 g ai/ha, postemergence, visual injury after approximately 10 d, 0 to 100 scale (0 no effect, 100 complete control)
Summary of the method: as §1

[3] = system: blackgrass (Alopecurus myosuroides); experiment: Test A postemergence; settings: Alopecurus myosuroides, post-emergence, 240 h, read-out: Plant response rating, Blackgrass; for pest or weed control at 125 g/ha: 125 g ai/ha, postemergence, visual injury after approximately 10 d, 0 to 100 scale (0 no effect, 100 complete control)
Summary of the method: as §1

corn (Zea mays) = experiment: Test A postemergence; settings: Zea mays, post-emergence, 240 h; for Corn plant response rating (crop injury, 0 = no effect, 100 = complete kill) at 125 g/ha: 125 g ai/ha, postemergence, visual injury after approximately 10 d, 0 to 100 scale (0 no effect, 100 complete control)
Summary of the method: as §1

[4] = system: giant foxtail (Setaria faberii); experiment: Test A postemergence; settings: Setaria faberi, post-emergence, 240 h, read-out: Plant response rating, Foxtail, Giant; for pest or weed control at 125 g/ha: 125 g ai/ha, postemergence, visual injury after approximately 10 d, 0 to 100 scale (0 no effect, 100 complete control)
Summary of the method: as §1

[5] = system: pigweed (Amaranthus retroflexus); experiment: Test A postemergence; settings: Amaranthus retroflexus, post-emergence, 240 h, read-out: Plant response rating, Pigweed; for pest or weed control at 125 g/ha: 125 g ai/ha, postemergence, visual injury after approximately 10 d, 0 to 100 scale (0 no effect, 100 complete control)
Summary of the method: as §1

[6] = system: ragweed (common ragweed, Ambrosia elatior); experiment: Test A postemergence; settings: Ambrosia artemisiifolia, post-emergence, 240 h, read-out: Plant response rating, Ragweed; for pest or weed control at 125 g/ha: 125 g ai/ha, postemergence, visual injury after approximately 10 d, 0 to 100 scale (0 no effect, 100 complete control)
Summary of the method: as §1

[7] = system: ryegrass, Italian (Italian ryegrass, Lolium multiflorum); experiment: Test A postemergence; settings: Lolium multiflorum, post-emergence, 240 h, read-out: Plant response rating, Ryegrass, Italian; for pest or weed control at 125 g/ha: 125 g ai/ha, postemergence, visual injury after approximately 10 d, 0 to 100 scale (0 no effect, 100 complete control)
Summary of the method: as §1

[8] = system: wheat (Triticum aestivum); experiment: Test A postemergence; settings: Triticum aestivum, post-emergence, 240 h, read-out: Plant response rating, Wheat; for plant injury at 125 g/ha: 125 g ai/ha, postemergence, visual injury after approximately 10 d, 0 to 100 scale (0 no effect, 100 complete control)
Summary of the method: as §1

[9] = system: barnyardgrass (Echinochloa crus-galli); experiment: Test B flooded paddy test; settings: Echinochloa crus-galli, Flood, 250 g ai/ha; scale of 0 to 100 where 0 is no effect and 100 is complete control; read-out: Barnyardgrass plant response rating
Summary of the method: (§2)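 Evaluation by eye, against controls, occurred 13–15 d post-treatment in a greenhouse, using a 0 (no effect) to 100 (complete control) scale. Application was into the paddy water, 3 cm deep over the soil, on 2-leaf plants.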

[10] = system: ducksalad (Heteranthera limosa); experiment: Test B flooded paddy test; settings: Heteranthera limosa, Flood, 250 g ai/ha; scale of 0 to 100 where 0 is no effect and 100 is complete control; read-out: Ducksalad plant response rating
Summary of the method: as §2

rice (Oryra sativa) = experiment: Test B flooded paddy test; settings: Oryza sativa, Flood, 250 g ai/ha; scale of 0 to 100 where 0 is no effect and 100 is complete control; read-out: Rice plant response rating
Summary of the method: as §2

[11] = system: sedge, umbrella (small-flower umbrella sedge, Cyperus difformis); experiment: Test B flooded paddy test; settings: Cyperus difformis, Flood, 250 g ai/ha; scale of 0 to 100 where 0 is no effect and 100 is complete control; read-out: Sedge, Umbrella plant response rating
Summary of the method: as §2

[12] = Postemergence, 31 g ai/ha, visual injury after approx. 10 d, 0 to 100 scale, 0 no effect, 100 complete control

| SMILES | pest or weed control at 125 g/ha [1] [%] | pest or weed control at 125 g/ha (Kochia (Kochia scoparia)) [%] | pest or weed control at 125 g/ha [2] [%] | pest or weed control at 125 g/ha [3] [%] | Corn plant response rating (crop injury, 0 = no effect, 100 = complete kill) at 125 g/ha (corn (Zea mays)) [%] | pest or weed control at 125 g/ha [4] [%] | pest or weed control at 125 g/ha [5] [%] | pest or weed control at 125 g/ha [6] [%] | pest or weed control at 125 g/ha [7] [%] | plant injury at 125 g/ha [8] [%] | pest or weed control at 250 g/ha [9] [%] | pest or weed control at 250 g/ha [10] [%] | pest or weed control at 250 g/ha (rice (Oryra sativa)) [%] | pest or weed control at 250 g/ha [11] [%] | further results |
| --- | --- | --- | --- | --- | --- | --- | --- | --- | --- | --- | --- | --- | --- | --- | --- |
| COc1cc([C@H]2CN(C)C(=O)[C@@H]2C(=O)Nc2ccccc2F)ccc1C(F)(F)F [Compound 768] | 30 | 0 | 70 | 0 | 30 | 80 | 0 | 0 | 30 | 0 | 60 | 85 | 15 | 0 |  |
| CN1C[C@H](c2ccc3c(c2)CCC3)[C@@H](C(=O)Nc2ccccc2S(C)(=O)=O)C1=O [Compound 744] | 30 | 30 | 60 | 20 | 40 | 80 | 0 | 20 | 30 | 50 | 60 | 85 | 0 | 0 |  |
| CSc1ccccc1NC(=O)[C@H]1C(=O)N(C)C[C@@H]1c1ccc(C(F)F)cc1 [Compound 799] | 50 | 30 | 70 | 30 | 20 | 80 | 20 | 0 | 20 |  | 65 | 80 | 30 | 0 | pest or weed control at 31 g/ha [1, 12]: 0%; pest or weed control at 31 g/ha (Kochia (Kochia scoparia); [12]): 0%; pest or weed control at 31 g/ha [2, 12]: 40%; pest or weed control at 31 g/ha [3, 12]: 0%; Corn plant response rating (crop injury, 0 = no effect, 100 = complete kill) at 31 g/ha (corn (Zea mays); [12]): 0%; pest or weed control at 31 g/ha [4, 12]: 40%; pest or weed control at 31 g/ha [5, 12]: 0%; pest or weed control at 31 g/ha [6, 12]: 0%; pest or weed control at 31 g/ha [7, 12]: 0%; plant injury at 31 g/ha [8, 12]: 0% |
| CN1C[C@H](c2ccc(C(F)(F)F)cc2)[C@@H](C(=O)Nc2ccccc2C(F)(F)F)C1=O [Compound 726] | 50 | 30 | 90 | 50 | 60 | 90 | 50 | 30 | 40 | 30 | 55 | 100 | 0 | 0 |  |
